According to publication PMC10572522, “A Designed Analog of an Antimicrobial Peptide, Crabrolin, Exhibits Enhanced Anti-Proliferative and In Vivo Antimicrobial Activity” (International Journal of Molecular Sciences, 2023):
Residues, ends and D or L forms follow the SMILES beside them.

Experiments:
[1] = tested on: P. aeruginosa (ATCC 9027); assay: Antimicrobial susceptibility assay (MIC/MBC); assay type: cell-based, Pseudomonas aeruginosa; conditions: for MIC: MHB, 37 °C, 20 h
Description: (§1) Six bacteria were tested in this experiment to detect the antimicrobial effects of crabrolin and its derivatives, including S. aureus (NCTC 10788), MRSA (NCTC 12493), E. coli (ATCC 8739), K. pneumoniae (ATCC 43816), E. faecium (NTCC-12697), and P. aeruginosa (ATCC 9027). The tested bacteria were cultured in Mueller Hinton broth medium (MHB) with norfloxacin (20 mg/L) as a positive control. All bacteria were incubated at 37 °C overnight and diluted to 5 × 10^5 CFU/mL before treating with the peptides. Stock solutions of 51,200 µM peptides were prepared in phosphate-buffered saline (PBS) and further diluted by a factor of two to 100 µM. Next, 1 µL of each peptide solution was mixed with 99 µL of bacterial subculture in a 96-well plate, and the plate was incubated at 37 °C for 20 h. After culturing, the absorbance of each well in the 96-well plate was analyzed at 550 nm using a Synergy HT plate reader (BioliseBioTek, Winooski, VT, USA). […] Starting with the MIC value, 10 µL of the solution from each well was dripped onto Mueller Hinton agar (MHA) plates. The plates were cultured at 37 °C for 20 h. After culturing, the lowest concentration with no colony growth was regarded as the MBC.

[2] = tested on: E. faecium (NTCC12697) biofilm; assay type: cell-based, Enterococcus faecium; conditions: for MBIC: biofilm inhibitory rate more than 90%; for MBEC: eradication rate greater than 99.9%
Description: (§2) To measure the antibiofilm activity of crabrolin and its derivatives, four drug-resistant biofilm-forming strains, MRSA (NCTC 12493), K. pneumoniae (ATCC 43816), E. faecium (NTCC-12697), and P. aeruginosa (ATCC 9027), were used in this assay. Tryptic soy broth (TSB) (for the Gram-positive bacteria) and Luria–Bertani broth (LB) (for the Gram-negative bacteria) were used to culture the bacteria.
(§3) The mass of the biofilm in this assay was detected by the crystal violet staining method. First, 100 μL of 5 × 10^5 CFU/mL bacteria was incubated with 1 μL of different peptide solutions (ranging from 51200 μM to 100 μM) for 24 h at 37 °C with 200 rpm shaking. After the biofilm formation, 100 μL of PBS was used to rinse the biofilm twice. Next, 100 µL of methanol was added to fix the biofilm, and the biofilm was then dried. Thereafter, 100 μL of 0.1% crystal violet was added and left to stain for 15 min, and then the excess crystal violet was further rinsed by PBS. After the plate had air-dried, 30% glacial acetic acid was added to each well of the plate, and the plate was shaken for 15 min before the optical density (OD) value was measured at 595 nm using a Synergy HT plate reader. The MBIC value refers to the minimum concentration at which the biofilm inhibitory rate was more than 90%.
(§4) Different from measuring the MBIC value, to determine the MBEC value, 100 μL of the bacteria was first added to 96-well plates. After the biofilm was formed, the biofilm was rinsed with PBS twice to remove the planktonic cells, and then different concentrations of the drugs were added to the biofilm (the same as the MBIC assay). The mixture was incubated at 37 °C with shaking at 200 rpm. After 24 h of incubation, the mass of the biofilm was measured in the same way as the MBIC value, and the minimum concentration at which the eradication rate was greater than 99.9% was considered to be the MBEC value.

MRSA (NCTC 12493) = assay: Antimicrobial susceptibility assay (MIC/MBC); assay type: cell-based, methicillin-resistant Staphylococcus aureus; conditions: for MIC: MHB, 37 °C, 20 h
Description: as §1

[3] = tested on: P. aeruginosa (ATCC 9027) biofilm; assay type: cell-based, Pseudomonas aeruginosa; conditions: for MBIC: biofilm inhibitory rate more than 90%; for MBEC: eradication rate greater than 99.9%
Description: as §2, §3, §4

[4] = tested on: MRSA (NCTC 12493) biofilm; assay type: cell-based, methicillin-resistant Staphylococcus aureus; conditions: for MBIC: biofilm inhibitory rate more than 90%; for MBEC: eradication rate greater than 99.9%
Description: as §2, §3, §4

E. coli (ATCC 8739) = assay: Antimicrobial susceptibility assay (MIC/MBC); assay type: cell-based, Escherichia coli; conditions: for MIC: MHB, 37 °C, 20 h
Description: as §1

[5] = tested on: K. pneumoniae (ATCC 43816); assay: Antimicrobial susceptibility assay (MIC/MBC); assay type: cell-based, Klebsiella pneumoniae; conditions: for MIC: MHB, 37 °C, 20 h
Description: as §1

horse erythrocytes = assay: Hemolysis assay; assay type: cell-based
Description: (§5) According to the procedures described in detail in a previous study, the debris and impurities of the erythrocytes were washed with PBS in advance to yield 2% of the erythrocyte suspension, and the drug concentration was diluted from 1024 µM to 2 µM with PBS [53]. The same amounts of the drug and the erythrocyte suspension were mixed and cultured at 37 °C for 2 h; 0.1% Triton X-100 (Sigma-Aldrich, St. Louis, MO, USA) was prepared as a positive control, and PBS was prepared as a negative control. After the incubation, the supernatant was transferred to a 96-well plate and then detected using a Synergy HT plate reader at 570 nm.

[6] = tested on: K. pneumoniae (ATCC 43816) biofilm; assay type: cell-based, Klebsiella pneumoniae; conditions: for MBIC: biofilm inhibitory rate more than 90%; for MBEC: eradication rate greater than 99.9%
Description: as §2, §3, §4

[7] = tested on: human non-small-cell lung cancer line H838; assay: Anti-proliferative assay (MTT); assay type: cell-based; conditions: 24 h
Description: (§6) The human non-small-cell lung cancer line, H838, the human prostate carcinoma cell line, PC-3, the human glioblastoma astrocytoma, U251MG, the human breast cancer cell line, MCF-7, the human colorectal carcinoma cell line, HCT116, and the human keratinocyte cell line, HaCaT, were used to detect the anti-proliferative effects of the crabrolin and its derivatives in vitro. A total of 8000 cells were seeded in each well of a 96-well plate. After the cells had adhered to the wall, the cells were starved for 4 h. After the starvation, the cells were incubated with different concentrations of the drugs, ranging from 100 µM to 1 nM, for 24 h, with 0.1% Triton X-100 used as a positive control. Next, 10 µL of MTT (3-(4,5-dimethylthiazol-2-yl)-2,5-diphenyltetrazolium bromide) solution (5 mg/mL) was added to each well of the 96-well plate. After 2 h of incubation, 100 μL of DMSO-superseded medium was added to each well to dissolve the formazan crystals. Finally, the absorbance was detected using a Synergy HT plate reader at 570 nm.

[8] = tested on: human prostate carcinoma cell line PC-3; assay: Anti-proliferative assay (MTT); assay type: cell-based; conditions: PC3, MTT, 24 h
Description: as §6

[9] = tested on: human breast cancer cell line MCF-7; assay: Anti-proliferative assay (MTT); assay type: cell-based; conditions: MCF-7, MTT, 24 h
Description: as §6

[10] = tested on: human glioblastoma astrocytoma U251MG; assay: Anti-proliferative assay (MTT); assay type: cell-based; conditions: 24 h
Description: as §6

[11] = tested on: human keratinocyte cell line HaCaT; assay: Anti-proliferative assay (MTT); assay type: cell-based; conditions: HaCaT (normal keratinocytes), 24 h
Description: as §6

[12] = tested on: human colorectal carcinoma cell line HCT-116; assay: Anti-proliferative assay (MTT); assay type: cell-based; conditions: HCT-116, MTT, 24 h
Description: as §6

S. aureus (NCTC 10788) = assay: Antimicrobial susceptibility assay (MIC/MBC); assay type: cell-based, Staphylococcus aureus; conditions: for MIC: MHB, 37 °C, 20 h
Description: as §1

E. faecium (NTCC 12697) = assay: Antimicrobial susceptibility assay (MIC/MBC); assay type: cell-based, Enterococcus faecium; conditions: for MIC: MHB, 37 °C, 20 h
Description: as §1

Hemolysis assay = assay type: cell-based, horse; conditions: horse, erythrocytes (2% suspension); at the peptide's maximum MIC; relative to Triton X-100; read-out: Hemolysis under the Maximum MIC
Description: as §5

Row | SMILES | MBC [1] | MIC [1] | MBIC [2] | MBEC [2] | MBC (MRSA (NCTC 12493)) | MIC (MRSA (NCTC 12493)) | MBIC [3] | MBEC [3] | MBIC [4] | MBEC [4] | MBC (E. coli (ATCC 8739)) | MIC (E. coli (ATCC 8739)) | MBC [5] | MIC [5] | MBIC [6] | MBEC [6] | IC50 [7] | IC50 [8] | IC50 [9] | IC50 [10] | also measured
1 | CC[C@H](C)[C@H](NC(=O)[C@H](CC(C)C)NC(=O)[C@@H]1CCCN1C(=O)[C@H](CC(C)C)NC(=O)[C@@H](N)Cc1ccccc1)C(=O)N[C@@H](CC(C)C)C(=O)N[C@@H](CCCNC(=N)N)C(=O)N[C@@H](CCCCN)C(=O)N[C@@H](CCCNC(=N)N)C(=O)N[C@H](C(=O)N[C@H](C(=O)N[C@@H](C)C(=O)N[C@@H](CC(C)C)C(N)=O)[C@@H](C)O)C(C)C [Crabrolin-9R, FLPLILRKRVTAL-NH2] (H-FLPLILRKRVTAL-NH2) | > 512 µM | > 512 µM | >512/>512 µM | >512/>512 µM | > 512 µM | > 512 µM | >512/>512 µM | >512/>512 µM | >512/>512 µM | >512/>512 µM | > 512 µM | 256 µM | > 512 µM | > 512 µM | >512/>512 µM | >512/>512 µM | 2740 µM | 354 µM | 6340 µM | 1140 µM | Hemolytic activity (in words) (horse erythrocytes; 1 to 512 μM): lost its hemolytic activity; IC50 [11]: 5850 µM; IC50 [12]: 1880 µM; MBC (S. aureus (NCTC 10788)): > 512 µM; MIC (S. aureus (NCTC 10788)): 256 µM; MBC (E. faecium (NTCC 12697)): > 512 µM; MIC (E. faecium (NTCC 12697)): > 512 µM
2 | CC[C@H](C)[C@H](NC(=O)[C@H](CCCNC(=N)N)NC(=O)[C@@H]1CCCN1C(=O)[C@H](CC(C)C)NC(=O)[C@@H](N)CCCNC(=N)N)C(=O)N[C@@H](CC(C)C)C(=O)N[C@@H](CCCNC(=N)N)C(=O)N[C@@H](CCCCN)C(=O)N[C@H](C(=O)N[C@H](C(=O)N[C@@H](CCCNC(=N)N)C(=O)N[C@@H](CCCNC(=N)N)C(=O)N[C@@H](CC(C)C)C(N)=O)C(C)C)[C@@H](C)CC [Crabrolin-AR, RLPRILRKIVRRL-NH2] (H-RLPRILRKIVRRL-NH2) | 16 µM | 4 µM | 64 µM | > 512 µM | 8 µM | 4 µM | 16 µM | > 512 µM | 8 µM | 512 µM | 4 µM | 2 µM | 16 µM | 8 µM | 8 µM | > 512 µM | 41.3 µM | 28.8 µM | 32.5 µM | 52 µM | hemolysis at 2 h (Hemolysis assay): 6.63%; HC10 (10% hemolytic concentration) (horse erythrocytes; erythrocytes, 37 °C, 2 h): 59.049 µM; IC50 [11]: 34.9 µM; IC50 [12]: 29.9 µM; MBC (S. aureus (NCTC 10788)): 8 µM; MIC (S. aureus (NCTC 10788)): 4 µM; MBC (E. faecium (NTCC 12697)): 32 µM; MIC (E. faecium (NTCC 12697)): 16 µM
